Results reported in patent US11220510B2, “Pyrrole tricyclic compounds as A2A / A2B inhibitors” (Incyte Corporation, priority 2018, dated 2022).

Assays:
[1] = biological target: Adenosine A2A receptor (Tag-lite Adenosine A2A labeled cells) (Homo sapiens (Human), UniProt P29274); test: A2A Tag-lite HTRF assay (fluorescent ligand displacement); conditions: Red antagonist fluorescent ligand 12.5 nM, one-site competitive binding model, read-out: A2A_Ki
From the text: Example C. A2A Tag-Lite® HTRF Assay
The final concentration of DMSO was 1%.

[2] = biological target: human adenosine A2B receptor (Homo sapiens (Human), UniProt P29275); test: Adenosine A2B Receptor Cyclic AMP GS Assay; format: cell-based; conditions: HEK-293 cells expressing human A2B; agonist NECA 12 nM; cAMP accumulation by FRET; read-out: A2B_cAMP_EC50
human adenosine A2B receptor, sequence (P29275 whole entry): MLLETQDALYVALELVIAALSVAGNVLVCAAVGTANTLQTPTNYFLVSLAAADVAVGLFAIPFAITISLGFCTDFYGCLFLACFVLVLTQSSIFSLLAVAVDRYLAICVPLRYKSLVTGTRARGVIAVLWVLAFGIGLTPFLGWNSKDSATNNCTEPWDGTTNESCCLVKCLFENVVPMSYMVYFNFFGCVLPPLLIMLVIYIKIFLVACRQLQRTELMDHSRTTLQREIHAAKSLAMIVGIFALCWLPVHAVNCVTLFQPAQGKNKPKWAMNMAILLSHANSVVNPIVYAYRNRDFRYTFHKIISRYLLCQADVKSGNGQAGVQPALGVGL
Method: Example B. Adenosine A2B Receptor Cyclic AMP GS Assay Stably transfected HEK-293 cells expressing the human adenosine A2B receptor (Perkin Elmer) were maintained in MEM culture medium with 10% FBS and 100 μg/ml Geneticin (Life Technologies). 18 to 24 hours prior to assay, geneticin was removed from culture. The cisbio cAMP-GS Dynamic kit utilizing the FRET (Fluorescence Resonance Energy Transfer) technology was used to measure cAMP accumulation in the cells. Compounds of the present disclosure at an appropriate concentration were mixed with 10000 cells/well in white 96 well half area plates (Perkin Elmer) for 30 min at room temperature gently shaking. Agonist, NECA (R&D Technologies) at 12 nM was added to each well for 60 min at room temperature gently shaking. Detection reagents, d2-labeled cAMP (acceptor) and anti-cAMP cryptate (donor) were added to each well for 60 min at RT gently shaking. Plates were read on Pherastar (BMG Labtech), fluorescence ratio 665/620 was calculated and EC50 determination was performed by fitting the curve of percent of control versus the log of the compound concentration using GraphPad Prism.

Adenosine A2A receptor (Tag-lite Adenosine A2A labeled cells), sequence (P29274 whole entry): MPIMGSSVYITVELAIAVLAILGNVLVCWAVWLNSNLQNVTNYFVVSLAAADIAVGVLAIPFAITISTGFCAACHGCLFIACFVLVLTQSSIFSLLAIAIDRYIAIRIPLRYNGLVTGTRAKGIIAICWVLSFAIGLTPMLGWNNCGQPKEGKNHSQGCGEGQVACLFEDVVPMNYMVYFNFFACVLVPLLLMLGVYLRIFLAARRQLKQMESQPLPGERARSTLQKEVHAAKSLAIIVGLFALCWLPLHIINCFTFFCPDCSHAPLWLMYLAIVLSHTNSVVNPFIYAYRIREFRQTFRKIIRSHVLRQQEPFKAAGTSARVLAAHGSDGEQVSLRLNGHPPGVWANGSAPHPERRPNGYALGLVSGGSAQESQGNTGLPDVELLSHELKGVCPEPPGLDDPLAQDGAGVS

Ki [1] [nM]	EC50 [2] [nM]	Structure (SMILES)
< 10	10 to 100	CCCCn1c2cc(-c3cnn(C4CN(c5nccc(N)n5)C4)c3)[nH]c2c(=O)n2c(C)nnc12 [Example 28, 7-(1-(1-(4-Aminopyrimidin-2-yl)azetidin-3-yl)-1H-pyrazol-4-yl)-9-butyl-3-methyl-6,9-dihydro-5H-pyrrolo[3,2-d][1,2,4]triazolo[4,3-a]pyrimidin-5-one]
< 10	10 to 100	CCCCn1c2cc(-c3cnn(C4CN(c5ncc(F)c(N)n5)C4)c3)[nH]c2c(=O)n2c(C)nnc12 [Example 29, 7-(1-(1-(4-Amino-5-fluoropyrimidin-2-yl)azetidin-3-yl)-1H-pyrazol-4-yl)-9-butyl-3-methyl-6,9-dihydro-5H-pyrrolo[3,2-d][1,2,4]triazolo[4,3-a]pyrimidin-5-one]
< 10	< 10	CCCCCn1c2cc(-c3cnn(Cc4ccc5c(c4)CCN(C(=O)CN(C)C)C5)c3)[nH]c2c(=O)n2c(C)nnc12 [Example 30, 7-(1-((2-(2-(Dimethylamino)acetyl)-1,2,3,4-tetrahydroisoquinolin-6-yl)methyl)-1H-pyrazol-4-yl)-3-methyl-9-pentyl-6,9-dihydro-5H-pyrrolo[3,2-d][1,2,4]triazolo[4,3-a]pyrimidin-5-one]
